Data from US10287251B2, “Pyrazole derivative or pharmaceutically acceptable salt thereof” (KISSEI PHARMACEUTICAL CO., LTD., priority 2015, dated 2019).

What follows are compounds tested against T1, TRPM8 (Rattus norvegicus, UniProt Q8R455) (assay: Confirmation test of inhibitory effects on icilin-induced wet-dog shakes). Settings: female SD rats, oral dose 1 mg/kg, icilin 1 mg/kg i.p. 1 hour after dosing, shakes counted for 5 minutes.
T1 construct: from tissue; host or cells: whole animal, female SD rats (in vivo)
T1 sequence (Q8R455 whole entry): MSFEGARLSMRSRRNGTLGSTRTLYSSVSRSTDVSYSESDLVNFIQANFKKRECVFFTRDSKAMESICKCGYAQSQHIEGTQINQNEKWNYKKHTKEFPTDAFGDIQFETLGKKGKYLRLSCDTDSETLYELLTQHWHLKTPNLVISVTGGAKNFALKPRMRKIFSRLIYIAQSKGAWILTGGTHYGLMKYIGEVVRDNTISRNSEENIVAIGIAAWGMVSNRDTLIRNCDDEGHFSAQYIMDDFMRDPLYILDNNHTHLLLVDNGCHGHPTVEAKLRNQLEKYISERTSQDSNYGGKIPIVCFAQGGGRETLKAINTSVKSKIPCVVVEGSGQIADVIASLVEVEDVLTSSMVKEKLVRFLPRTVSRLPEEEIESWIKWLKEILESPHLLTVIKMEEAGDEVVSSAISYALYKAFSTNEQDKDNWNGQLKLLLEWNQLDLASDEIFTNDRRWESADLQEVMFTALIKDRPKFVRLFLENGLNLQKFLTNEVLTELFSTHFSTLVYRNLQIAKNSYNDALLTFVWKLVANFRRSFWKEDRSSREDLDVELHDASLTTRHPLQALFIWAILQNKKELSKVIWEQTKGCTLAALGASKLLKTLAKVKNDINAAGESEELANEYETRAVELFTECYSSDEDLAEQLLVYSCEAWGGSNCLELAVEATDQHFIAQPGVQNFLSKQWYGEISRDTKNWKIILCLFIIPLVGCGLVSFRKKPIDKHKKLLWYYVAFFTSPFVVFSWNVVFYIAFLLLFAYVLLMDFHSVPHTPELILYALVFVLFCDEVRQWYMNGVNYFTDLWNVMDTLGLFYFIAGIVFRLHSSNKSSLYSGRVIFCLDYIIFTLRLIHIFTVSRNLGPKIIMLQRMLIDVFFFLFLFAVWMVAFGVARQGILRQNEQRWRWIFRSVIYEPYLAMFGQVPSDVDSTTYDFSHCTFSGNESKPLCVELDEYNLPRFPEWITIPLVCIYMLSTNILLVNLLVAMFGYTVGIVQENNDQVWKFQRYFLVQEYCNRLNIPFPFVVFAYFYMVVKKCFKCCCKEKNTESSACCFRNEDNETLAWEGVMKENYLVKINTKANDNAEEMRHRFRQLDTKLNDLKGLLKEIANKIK
Assay type: in vivo
Text: Further, TRPM8 inhibitory activity can be evaluated by the efficacy inhibiting the wet-dog shake action which is induced by the administration of Icilin, TRPM8 agonist. Furthermore, an effect on overactive bladder (OAB) can be evaluated by an elongation of micturition interval against overactive bladder induced by acetic acid in accordance with a similar method described in J. Urol., 2001, 166, 1142.
Confirmation Test of Inhibitory Effects on Icilin-induced Wet-dog Shakes
Test compounds were dissolved in dimethylacetamide (wako), and 0.5% methylcellulose solution (wako) was added to make the solution or suspension containing 5% of dimethylacetatnide. At a dose of 0.3 to 10 mg/kg/5mL of test compounds were orally administered to female SD rats. After 1 hour, wet-dog shakes were induced by the intraperitoneal injection of icilin (1 mg/kg) which was dissolved in polyethylene glycol 400 (wako). From 5 minutes after the administration of icilin, wet-dog shakes were counted for 5 minutes. For control example, vehicle (a mixture of dimethylacetamide (wako): 0.5% methylcellulose (wako)=5:95) was administrated similarly, and the number of wet-dog shakes was counted in the same manner. A percent inhibition of wet-dog shakes by test compound was calculated from the following formula: [1-(test compound wet-dog shake count/vehicle wet-dog shake count)]×100.
In the case of `CO[C@H](CO)[C@@H](Cc1ccccn1)NC(=O)c1cccc(F)c1-c1n[nH]c(-c2ccc(F)cc2)c1F` [Example 43-14], the “% inhibition of Wet-Dog Shake” value is reported as 100%.
`O=C(N[C@@H](CCO)Cc1ccccn1)c1ccccc1-c1n[nH]c(-c2ccc(F)cc2)c1F` [Example 1-173] was tested, and the “% inhibition of Wet-Dog Shake” value was 85%.
`O=C(N[C@@H](CO)C(F)(F)c1ccccn1)c1cccc(F)c1-c1cc(-c2ccc(F)cc2)[nH]n1` [Example 1-230] was tested, and the “% inhibition of Wet-Dog Shake” value was 59%.
`O=C(N[C@@H](CO)Cc1ccccn1)c1ccccc1-c1n[nH]c(-c2ccc(F)cc2)c1F` [Example 1-97] was tested, and the “% inhibition of Wet-Dog Shake” value was 50%.
In the case of `O=C(N[C@@H](CO)Cc1ncccc1F)c1cccc(F)c1-c1cc(-c2ccc(F)cc2)[nH]n1` [Example 1-167], the “% inhibition of Wet-Dog Shake” value is reported as 65%.
`O=C(N[C@@H](CCO)Cc1ccccn1)c1cccc(F)c1-c1n[nH]c(-c2ccc(F)cc2)c1F` [Example 28-1, 3-Fluoro-2-[4-fluoro-5-(4-fluorophenyl)-1H-pyrazol-3-yl]-N-[(2R)-4-hydroxy-1-(pyridin-2-yl)butan-2-yl]benzamide] was tested, and the “% inhibition of Wet-Dog Shake” value was 62%.

Same assay, conditions: female SD rats, oral dose 3 mg/kg, icilin 1 mg/kg i.p. 1 hour after dosing, shakes counted for 5 minutes
For `CO[C@@H](CO)[C@@H](Cc1ccccn1)NC(=O)c1cccc(F)c1-c1cc(-c2ccc(F)cc2)[nH]n1` [Example 43-2], the “% inhibition of Wet-Dog Shake” value was 100%.
`CO[C@H](CO)[C@@H](Cn1cc(Cl)cn1)NC(=O)c1cccc(F)c1-c1cc(-c2ccc(F)cc2)[nH]n1` [Example 27-29] was tested, and the “% inhibition of Wet-Dog Shake” value was 47%.
With `CC(c1ccccn1)[C@@H](NC(=O)c1cccc(F)c1-c1n[nH]c(-c2ccc(F)cc2)c1F)[C@H](O)CO` (stereo partly shown) [Example 54-17] the “% inhibition of Wet-Dog Shake” value was 42%.
In the case of `O=C(N[C@H](Cc1ccccn1)C(CO)CO)c1cccc(F)c1-c1cc(-c2ccc(F)cc2)[nH]n1` [Example 35-3], the “% inhibition of Wet-Dog Shake” value is reported as 69%.
With `C[C@@](O)(CO)[C@@H](Cc1ccccn1)NC(=O)c1cccc(F)c1-c1cc(-c2ccc(F)cc2)[nH]n1` [Example 1-224] the “% inhibition of Wet-Dog Shake” value was 82%.
`C[C@](O)(CO)[C@@H](Cc1ccccn1)NC(=O)c1cccc(F)c1-c1cc(-c2ccc(Cl)cc2)[nH]n1` [Example 1-219] was tested, and the “% inhibition of Wet-Dog Shake” value was 45%.
With `COC(c1ccccn1)[C@H](CO)NC(=O)c1cccc(Cl)c1-c1cc(-c2ccc(F)cc2)[nH]n1` (stereo partly shown) [Example 43-12] the “% inhibition of Wet-Dog Shake” value was 92%.
For `CC(O)(c1ccccn1)[C@H](CO)NC(=O)c1cccc(F)c1-c1cc(-c2ccc(F)cc2)[nH]n1` (stereo partly shown) [Example 1-241], the “% inhibition of Wet-Dog Shake” value was 100%.
With `COC(c1ccccn1)[C@H](CO)NC(=O)c1cccc(F)c1-c1cc(-c2ccc(F)cc2)[nH]n1` (stereo partly shown) [Example 43-6] the “% inhibition of Wet-Dog Shake” value was 49%.
`CC(C)(O)[C@@H](Cc1ccccn1)NC(=O)c1cccc(F)c1-c1cc(-c2ccc(Cl)cc2)[nH]n1` [Example 34-1HP, 2-[-5-(4-Chlorophenyl)-1H-pyrazol-3-yl]-3-fluoro-N-[(2R)-3-hydroxy-3-methyl-1-(pyridin-2-yl)butan-2-yl]benzamide] was tested, and the “% inhibition of Wet-Dog Shake” value was 92%.
For `C[C@@](Cc1ccccn1)(NC(=O)c1cccc(F)c1-c1cc(-c2ccc(F)cc2)[nH]n1)C(N)=O` [Example 24-7], the “% inhibition of Wet-Dog Shake” value was 56%.
`O=C(N[C@H](Cc1ncccn1)[C@@H](O)CO)c1cccc(F)c1-c1cc(-c2ccc(F)cc2)[nH]n1` [Example 31-1, N-[(2R,3R)-3,4-Dihydroxy-1-(pyrimidin-2-yl)butan-2-yl]-3-fluoro-2-[5-(4-fluorophenyl)-1H-pyrazol-3-yl]benzamide] was tested, and the “% inhibition of Wet-Dog Shake” value was 36%.
In the case of `C[C@](CCO)(Cc1ccccn1)NC(=O)c1cccc(F)c1-c1cc(-c2ccc(F)cc2)[nH]n1` [Example 24-4], the “% inhibition of Wet-Dog Shake” value is reported as 31%.
In the case of `COC(c1ccccn1)[C@H](CO)NC(=O)c1ccccc1-c1n[nH]c(-c2ccc(F)cc2)c1F` (stereo partly shown) [Example 43-17], the “% inhibition of Wet-Dog Shake” value is reported as 78%.
For `O=C1N[C@@H]([C@@H](Cc2ccccn2)NC(=O)c2cccc(F)c2-c2cc(-c3ccc(F)cc3)[nH]n2)CO1` [Example 47-1, 3-Fluoro-2-[5-(4-fluorophenyl)-1H-pyrazol-3-yl]-N-[(1R)-1-((4S)-2-oxo-1,3-oxazolidin-4-yl)-2-(pyridin-2-yl)ethyl]benzamide], the “% inhibition of Wet-Dog Shake” value was 48%.
For `CC(c1ccccn1)[C@H](CCO)NC(=O)c1cccc(F)c1-c1cc(-c2ccc(F)cc2)[nH]n1` (stereo partly shown) [Example 1-138], the “% inhibition of Wet-Dog Shake” value was 100%.
In the case of `O=C(N[C@@H](CO)Cc1ccccc1)c1ccccc1-c1cc(-c2ccc(F)c(F)c2)[nH]n1` [Example 1-62], the “% inhibition of Wet-Dog Shake” value is reported as 55%.
With `O=C(N[C@@H](CO)Cc1ccccc1)c1cccc(F)c1-c1cc(-c2ccccc2)[nH]n1` [Example 1-68] the “% inhibition of Wet-Dog Shake” value was 41%.
For `O=C(N[C@@H](CO)C(O)c1ccccn1)c1cccc(F)c1-c1cc(-c2ccc(F)cc2)[nH]n1` (single isomer, unassigned) [Example 54-2], the “% inhibition of Wet-Dog Shake” value was 48%.
With `O=C(N[C@@H](CCO)Cc1ccccn1)c1cccc(OC(F)(F)F)c1-c1cc(-c2ccc(F)cc2)[nH]n1` [Example 1-134] the “% inhibition of Wet-Dog Shake” value was 49%.
In the case of `O=C(N[C@@H](CO)C(O)c1ccccn1)c1cccc(Cl)c1-c1cc(-c2ccc(F)cc2)[nH]n1` (stereo partly shown) [Example 1-210], the “% inhibition of Wet-Dog Shake” value is reported as 47%.
With `O=C(N[C@@H](CO)Cc1ccccn1)c1cccc(OC(F)(F)F)c1-c1cc(-c2ccc(F)cc2)[nH]n1` [Example 1-64] the “% inhibition of Wet-Dog Shake” value was 69%.
For `O=C(N[C@H](Cc1ccccn1)[C@H](O)CO)c1ccccc1-c1cc(-c2ccc(F)cc2)[nH]n1` [Example 1-185], the “% inhibition of Wet-Dog Shake” value was 56%.
In the case of `CC(CO)(CO)[C@@H](Cc1ccccn1)NC(=O)c1cccc(F)c1-c1cc(-c2ccc(Cl)cc2)[nH]n1` [Example 35-1, 2-[5-(4-Chlorophenyl)-1H-pyrazol-3-yl]-3-fluoro-N-[(2R)-4-hydroxy-3-(hydroxymethyl)-3-methyl-1-(pyridin-2-yl)butan-2-yl]benzamide], the “% inhibition of Wet-Dog Shake” value is reported as 42%.
With `C[C@@](CO)(Cc1ccccn1)NC(=O)c1cccc(F)c1-c1cc(-c2ccc(F)cc2)[nH]n1` [Example 36-2] the “% inhibition of Wet-Dog Shake” value was 72%.
In the case of `O=C(N[C@H](Cc1ccccn1)[C@@H](O)CO)c1cccc(F)c1-c1n[nH]c(-c2ccc(F)cc2)c1F` [Example 54-9], the “% inhibition of Wet-Dog Shake” value is reported as 40%.
`O=C(N[C@@H](CCO)Cc1ncccn1)c1cccc(F)c1-c1cc(-c2ccc(F)cc2)[nH]n1` [Example 1-191] was tested, and the “% inhibition of Wet-Dog Shake” value was 31%.
For `C[C@H](O)C[C@@H](Cc1ccccn1)NC(=O)c1cccc(F)c1-c1cc(-c2ccc(F)cc2)[nH]n1` [Example 1-130], the “% inhibition of Wet-Dog Shake” value was 92%.
In the case of `COC(c1ccccn1)[C@H](CO)NC(=O)c1cccc(F)c1-c1n[nH]c(-c2ccc(F)cc2)c1F` (stereo partly shown) [Example 43-16], the “% inhibition of Wet-Dog Shake” value is reported as 97%.
In the case of `O=C(N[C@@H](CO)C(O)c1ccccn1)c1cccc(F)c1-c1cc(-c2ccc(F)cc2)[nH]n1` (single isomer, unassigned) [Example 54-1], the “% inhibition of Wet-Dog Shake” value is reported as 70%.
With `COc1cccnc1C[C@H](CCO)NC(=O)c1cccc(F)c1-c1cc(-c2ccc(F)cc2)[nH]n1` [Example 1-108] the “% inhibition of Wet-Dog Shake” value was 61%.
For `O=C(N[C@H](Cc1ccccn1)[C@H](O)CO)c1cccc(F)c1-c1n[nH]c(-c2ccc(F)cc2)c1F` [Example 1-156], the “% inhibition of Wet-Dog Shake” value was 99%.
In the case of `Cc1cccnc1C[C@H](CCO)NC(=O)c1cccc(F)c1-c1cc(-c2ccc(F)cc2)[nH]n1` [Example 1-117], the “% inhibition of Wet-Dog Shake” value is reported as 46%.

Same assay, conditions: female SD rats, oral dose 10 mg/kg, icilin 1 mg/kg i.p. 1 hour after dosing, shakes counted for 5 minutes
For `NC(=O)[C@@H](Cc1ccccn1)NC(=O)c1ccccc1-c1cc(-c2ccccc2)[nH]n1` [Example 1-15], the “% inhibition of Wet-Dog Shake” value was 54%.
In the case of `O=C(N[C@@H](CO)Cc1ccccn1)c1ccccc1-c1cc(-c2ccccc2)[nH]n1` [Example 1-27], the “% inhibition of Wet-Dog Shake” value is reported as 68%.
For `NC[C@@H](Cc1ccccn1)NC(=O)c1ccccc1-c1cc(-c2ccc(F)c(F)c2)[nH]n1` [Example 16-11], the “% inhibition of Wet-Dog Shake” value was 51%.
`NC(=O)C[C@@H](Cc1ccccc1)NC(=O)c1ccccc1-c1cc(-c2ccc(F)cc2)[nH]n1` [Example 1-77] was tested, and the “% inhibition of Wet-Dog Shake” value was 59%.
In the case of `O=C(N[C@@H](CO)Cc1ccccn1)c1c(F)cccc1-c1cc(-c2ccc(F)cc2)[nH]n1` [Example 1-94], the “% inhibition of Wet-Dog Shake” value is reported as 100%.
`O=C(NCCc1ccccn1)c1cccc(OC(F)(F)F)c1-c1cc(-c2ccccc2)[nH]n1` [Example 4-1, 2-(5-Phenyl-1H-pyrazol-3-yl)-N-[2-(pyridin-2-yl)ethyl]-3-trifluoromethoxybenzamide] was tested, and the “% inhibition of Wet-Dog Shake” value was 70%.
For `O=C(NC(CCO)Cc1ccccc1)c1ccccc1-c1cc(-c2ccc(F)cc2)[nH]n1` (stereo not shown) [Example 1-76], the “% inhibition of Wet-Dog Shake” value was 72%.
